PubChem BioAssay (NCI)
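Protocol summary: plate cells (96-well), add compound at 5 concentrations, incubate 48 h, interpolate endpoints linearly. Abbreviation: GI50, concentration required for 50% inhibition of growth. TGI: concentration producing complete growth inhibition.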

Assays:
Assay in all cases: NCI tumour cell line growth inhibition, 48 h
786-0 renal = tested on: 786-0 renal
A498 renal = tested on: A498 renal
A549 NSCLC = tested on: A549 NSCLC
ACHN renal = tested on: ACHN renal
BT-549 breast = tested on: BT-549 breast
CAKI-1 renal = tested on: CAKI-1 renal
CCRF-CEM leukemia = tested on: CCRF-CEM leukemia
COLO 205 colon = tested on: COLO 205 colon
DU-145 prostate = tested on: DU-145 prostate
EKVX NSCLC = tested on: EKVX NSCLC
HCC-2998 colon = tested on: HCC-2998 colon
HCT-116 colon = tested on: HCT-116 colon
HCT-15 colon = tested on: HCT-15 colon
HL-60(TB) leukemia = tested on: HL-60(TB) leukemia
HOP-62 NSCLC = tested on: HOP-62 NSCLC
HOP-92 NSCLC = tested on: HOP-92 NSCLC
HS 578T breast = tested on: HS 578T breast
HT29 colon = tested on: HT29 colon
IGROV1 ovarian = tested on: IGROV1 ovarian
K-562 leukemia = tested on: K-562 leukemia
KM12 colon = tested on: KM12 colon
LOX IMVI melanoma = tested on: LOX IMVI melanoma
M14 melanoma = tested on: M14 melanoma
MALME-3M melanoma = tested on: MALME-3M melanoma
MCF7 breast = tested on: MCF7 breast
MDA-MB-231 breast = tested on: MDA-MB-231 breast
MDA-MB-435 = tested on: MDA-MB-435
MOLT-4 leukemia = tested on: MOLT-4 leukemia
NCI-H226 lung = tested on: NCI-H226 lung
NCI-H460 lung = tested on: NCI-H460 lung
NCI-H522 lung = tested on: NCI-H522 lung
NCI/ADR-RES ovarian = tested on: NCI/ADR-RES ovarian
OVCAR-3 ovarian = tested on: OVCAR-3 ovarian
OVCAR-4 ovarian = tested on: OVCAR-4 ovarian
OVCAR-5 ovarian = tested on: OVCAR-5 ovarian
OVCAR-8 ovarian = tested on: OVCAR-8 ovarian
PC-3 prostate = tested on: PC-3 prostate
RPMI-8226 leukemia = tested on: RPMI-8226 leukemia
RXF 393 renal = tested on: RXF 393 renal
SF-268 CNS = tested on: SF-268 CNS
SF-295 CNS = tested on: SF-295 CNS
SF-539 CNS = tested on: SF-539 CNS
SK-MEL-2 melanoma = tested on: SK-MEL-2 melanoma
SK-MEL-28 melanoma = tested on: SK-MEL-28 melanoma
SK-MEL-5 melanoma = tested on: SK-MEL-5 melanoma
SK-OV-3 ovarian = tested on: SK-OV-3 ovarian
SN12C renal = tested on: SN12C renal
SNB-19 CNS = tested on: SNB-19 CNS
SNB-75 CNS = tested on: SNB-75 CNS
SR leukemia = tested on: SR leukemia
SW-620 colon = tested on: SW-620 colon
T-47D breast = tested on: T-47D breast
TK-10 renal = tested on: TK-10 renal
U251 CNS = tested on: U251 CNS
UACC-257 melanoma = tested on: UACC-257 melanoma
UACC-62 melanoma = tested on: UACC-62 melanoma
UO-31 renal = tested on: UO-31 renal

With `COc1cc(OC)c(S(N)(=O)=O)cc1C(=O)/C=C/c1ccc(Cl)cc1` the GI50 (786-0 renal) was 1.9 µM, the TGI (786-0 renal) was 4.32 µM and the GI50 (A498 renal) was 18.6 µM. It also gave a TGI (A498 renal) of 34 µM, a GI50 (A549 NSCLC) of 3.17 µM and a TGI (A549 NSCLC) of 14.2 µM. The GI50 (ACHN renal) was 3.16 µM, the TGI (ACHN renal) was 11.1 µM and the GI50 (BT-549 breast) was 1.25 µM. It also gave a TGI (BT-549 breast) of 2.73 µM, a GI50 (CAKI-1 renal) of 1.89 µM and a TGI (CAKI-1 renal) of 10.5 µM. For the same molecule, the GI50 (CCRF-CEM leukemia) was 1.52 µM, the TGI (CCRF-CEM leukemia) was > 100 µM and the GI50 (COLO 205 colon) was 1.66 µM. It also gave a TGI (COLO 205 colon) of 3.13 µM, a GI50 (DU-145 prostate) of 3.44 µM and a TGI (DU-145 prostate) of 15.4 µM. It also gave a GI50 (EKVX NSCLC) of 3.88 µM, a TGI (EKVX NSCLC) of 22.3 µM and a GI50 (HCC-2998 colon) of 2.41 µM. It also gave a TGI (HCC-2998 colon) of 6.12 µM, a GI50 (HCT-116 colon) of 0.748 µM and a TGI (HCT-116 colon) of 2.13 µM. The GI50 (HCT-15 colon) was 1.46 µM, the TGI (HCT-15 colon) was 10.2 µM and the GI50 (HL-60(TB) leukemia) was 1.91 µM. It also gave a TGI (HL-60(TB) leukemia) of 8.88 µM, a GI50 (HOP-62 NSCLC) of 2.58 µM and a TGI (HOP-62 NSCLC) of 6.59 µM. For the same molecule, the GI50 (HOP-92 NSCLC) was 1.46 µM, the TGI (HOP-92 NSCLC) was 4.92 µM and the GI50 (HS 578T breast) was 4.22 µM. The TGI (HS 578T breast) was > 100 µM, the GI50 (HT29 colon) was 2.18 µM and the TGI (HT29 colon) was 4.66 µM. It also gave a GI50 (IGROV1 ovarian) of 2.95 µM, a TGI (IGROV1 ovarian) of 12.3 µM and a GI50 (K-562 leukemia) of 1.85 µM. The TGI (K-562 leukemia) was 13.6 µM, the GI50 (KM12 colon) was 1.82 µM and the TGI (KM12 colon) was 7.06 µM. For the same molecule, the GI50 (LOX IMVI melanoma) was 0.733 µM, the TGI (LOX IMVI melanoma) was 2.51 µM and the GI50 (M14 melanoma) was 1.47 µM. For the same molecule, the TGI (M14 melanoma) was 3.14 µM, the GI50 (MALME-3M melanoma) was 2.79 µM and the TGI (MALME-3M melanoma) was 8.51 µM. For the same molecule, the GI50 (MCF7 breast) was 1.08 µM, the TGI (MCF7 breast) was 4.11 µM and the GI50 (MDA-MB-231 breast) was 3.92 µM. For the same molecule, the TGI (MDA-MB-231 breast) was 18.9 µM, the GI50 (MDA-MB-435) was 2.08 µM and the TGI (MDA-MB-435) was 6.54 µM. For the same molecule, the GI50 (MOLT-4 leukemia) was 2.82 µM, the TGI (MOLT-4 leukemia) was 13 µM and the GI50 (NCI-H226 lung) was 2.56 µM. It also gave a TGI (NCI-H226 lung) of 8.86 µM, a GI50 (NCI-H460 lung) of 2.84 µM and a TGI (NCI-H460 lung) of 12 µM. It also gave a GI50 (NCI-H522 lung) of 1.63 µM, a TGI (NCI-H522 lung) of 3.42 µM and a GI50 (NCI/ADR-RES ovarian) of 3.97 µM. The TGI (NCI/ADR-RES ovarian) was > 100 µM, the GI50 (OVCAR-3 ovarian) was 3.51 µM and the TGI (OVCAR-3 ovarian) was 17.6 µM. The GI50 (OVCAR-4 ovarian) was 3.54 µM, the TGI (OVCAR-4 ovarian) was 27 µM and the GI50 (OVCAR-5 ovarian) was 3.18 µM. For the same molecule, the TGI (OVCAR-5 ovarian) was 11.5 µM, the GI50 (OVCAR-8 ovarian) was 3.01 µM and the TGI (OVCAR-8 ovarian) was 14.6 µM. The GI50 (PC-3 prostate) was 1.6 µM, the TGI (PC-3 prostate) was 4.25 µM and the GI50 (RPMI-8226 leukemia) was 1.86 µM. It also gave a TGI (RPMI-8226 leukemia) of 6.33 µM, a GI50 (RXF 393 renal) of 1.62 µM and a TGI (RXF 393 renal) of 3.34 µM. The GI50 (SF-268 CNS) was 3.75 µM, the TGI (SF-268 CNS) was 26.1 µM and the GI50 (SF-295 CNS) was 3.88 µM. For the same molecule, the TGI (SF-295 CNS) was 12.5 µM, the GI50 (SF-539 CNS) was 2.14 µM and the TGI (SF-539 CNS) was 4.82 µM. For the same molecule, the GI50 (SK-MEL-2 melanoma) was 11.5 µM, the TGI (SK-MEL-2 melanoma) was 25.6 µM and the GI50 (SK-MEL-28 melanoma) was 3.03 µM. For the same molecule, the TGI (SK-MEL-28 melanoma) was 9.87 µM, the GI50 (SK-MEL-5 melanoma) was 4.93 µM and the TGI (SK-MEL-5 melanoma) was 16.9 µM. The GI50 (SK-OV-3 ovarian) was 2.8 µM, the TGI (SK-OV-3 ovarian) was 8.22 µM and the GI50 (SN12C renal) was 2.48 µM. For the same molecule, the TGI (SN12C renal) was 12.6 µM, the GI50 (SNB-19 CNS) was 3.17 µM and the TGI (SNB-19 CNS) was 16.7 µM. The GI50 (SNB-75 CNS) was 1.5 µM, the TGI (SNB-75 CNS) was 3.23 µM and the GI50 (SR leukemia) was 2.11 µM. It also gave a TGI (SR leukemia) of 7.84 µM, a GI50 (SW-620 colon) of 2.49 µM and a TGI (SW-620 colon) of 11.7 µM. For the same molecule, the GI50 (T-47D breast) was 2.37 µM, the TGI (T-47D breast) was 12.4 µM and the GI50 (TK-10 renal) was 2.91 µM. For the same molecule, the TGI (TK-10 renal) was 8.89 µM, the GI50 (U251 CNS) was 2.18 µM and the TGI (U251 CNS) was 6.48 µM. It also gave a GI50 (UACC-257 melanoma) of 5.46 µM, a TGI (UACC-257 melanoma) of 22.7 µM and a GI50 (UACC-62 melanoma) of 2.67 µM. It also gave a TGI (UACC-62 melanoma) of 10.6 µM, a GI50 (UO-31 renal) of 2.36 µM and a TGI (UO-31 renal) of 10.3 µM.
